Measurements reported in patent publication US11414429B2, “Compound or pharmaceutically acceptable salt thereof” (RIKEN, priority 2016, dated 2022).
Where two headings read alike, the source gives them in different places.

Key:
[1] = tested on: human colorectal cancer cell line, COLO-320DM; assay: Cell proliferation inhibitory activity test (Celltiter-Glo Luminescent Cell Viability Assay); assay type: cell-based; conditions: COLO-320DM cells, 96 hours
Experimental: (Test Example 2) Cell Proliferation Inhibitory Activity Test
The cell proliferation inhibitory activity of the compound obtained in each of Examples against human colorectal cancer cell line, COLO-320DM was evaluated by Celltiter-Glo Luminescent Cell Viability Assay (Promega Corporation, G7573). The COLO-320 DM cells were cultured in a RPMI-1640 medium (Wako Pure Chemical Industries, Ltd., 189-02025) containing 10% fetal bovine serum and 2 mM of glutamine. The cultured cells were washed with PBS and then detached with trypsin/EDTA to prepare a cell solution containing 3×10^4 cells/mL.
Next, the cell solution was seeded in a 96 well microplate (Thermo/Nunc, 136101) in an amount of 70 μL/well and was cultured overnight under conditions at 37° C. with 5% CO2. On the next day, 10 μL/well of a solution in which the test target compound (DMSO solution) was diluted with the cell culture medium (a final DMSO concentration of 1%) was added and the reaction was allowed to proceed under conditions at 37° C. with 5% CO2 for 96 hours (a 1% DMSO solution was used as a control). Subsequently, 80 μL/well of Celltiter-Glo Luminescent Cell Viability Assay reagent (Promega Corporation, G7573) was added, followed by agitation for 2 minutes with a shaker under shielding with aluminum foil. Thereafter, the resultant solution was allowed to stand for reaction at room temperature for 10 minutes.
After that, the luminescent signal was measured with a luminometer (Biotech, Synergy). The cell proliferation inhibitory activity was evaluated by obtaining a percentage of a cell proliferation volume of each compound-added group with respect to a cell proliferation volume (100%) of a control group in which no test target component solution was added, and calculating a value of compound concentration (GI50) required to reduce the remaining cell volume to 50% of the remaining cell volume of the control. […] The results are shown in Tables 120 to 123 together with the results of the tankyrase inhibition activity test.

[2] = biological target: T1, tankyrase 1 (TNKS 1) (Homo sapiens, UniProt O95271); assay: Tankyrase inhibitory activity test (ELISA, self-polyADP ribosylation), tankyrase 1; assay type: biochemical; conditions: self-polyADP ribosylation
T1 construct: 1,024-1,327aa; made in house; host or cells: cell-free protein synthesis system
Experimental: (§1) (Test Example 1) Tankyrase Inhibitory Activity Test
(§2) For each of the compounds obtained in Examples (the test target compounds), the tankyrase inhibitory activity (an inhibitory activity against tankyrase 1 (TNKS 1) and an inhibitory activity against tankyrase 2 (TNKS 2)) was evaluated by measuring the enzymatic activity of tankyrase 1 and the enzymatic activity of tankyrase 2 by the ELISA technique using self-polyADP ribosylation as an index. First, Flag-tag fusion tankyrase 1 (1,024-1,327aa, SAM+PARP) and tankyrase 2 (613-1, 116aa, ANK5+SAM+PARP) were each synthesized by a cell-free protein synthesis system and diluted with a Tris buffer (50 mM Tris-HCl (pH 8.0), 150 mM NaCl, 10% glycerol). Then, 50 μL of the diluted tankyrase 1 or tankyrase 2 was added to a plate on which the anti-FLAGM 2 monoclonal antibody was immobilized (Anti-FLAG high sensitivity M2 coated plate) (SIGMA Corporation), and was allowed to stand at 4° C. overnight. Thereafter, the plate was washed four times with a PBS buffer containing 0.1% Triton X-100 (PBST buffer).
(§3) Subsequently, the test target compound diluted with an assay buffer (50 mM Tris-HCl (pH 8.0), 4 mM MgCl2, 0.2 mM DTT) (using DMSO as a control) was added to each well of the plate and was allowed to stand at room temperature for 10 minutes. Thereafter, a biotin-labeled NAD solution (225 μM NAD, 25 μM 6-Biotin-17-NAD (Trevigen Inc.)) was added as a donor substrate and mixed with the resultant test target compound, and the reaction was allowed to proceed at 30° C. for 45 minutes. Instead of the biotin-labeled NAD solution, distilled water was added to blank wells. After the reaction, the plate was washed four times with the PBST buffer. Thereafter, HRP (horseradish peroxidase)-labeled streptavidin (Trevigen Inc.) diluted 1,000-fold with the PBS buffer was added to each well, and the reaction was allowed to proceed at room temperature for 20 minutes. After the plate was washed four times with the PBST buffer, a chemiluminescent substrate solution TACS-Sapphire (Trevigen Inc.) was added to each well and the reaction was allowed to proceed at room temperature for 20 minutes. Then, the chemiluminescence intensity was measured using a chemiluminescence measuring apparatus.
(§4) The residual enzyme activity in the presence of the test target compound was determined in accordance with the following formula. Based on the residual enzyme activity at multiple concentrations of the test target compound, an enzyme inhibition activity was calculated as a 50% inhibitory concentration (IC50 value) using data analysis software named Origin (LightStone Corp.).

[3] = biological target: T2, tankyrase 2 (TNKS 2) (Homo sapiens, UniProt Q9H2K2); assay: Tankyrase inhibitory activity test (ELISA, self-polyADP ribosylation), tankyrase 2; assay type: biochemical; conditions: self-polyADP ribosylation
T2 construct: 613-1, 116aa; made in house; host or cells: cell-free protein synthesis system
Experimental: as §1, §2, §3, §4

[4] = read-out: COLO-320 DM cell proliferation inhibitory activity (GI50 class)
[5] = tankyrase 1, ELISA, read-out: TNKS1 inhibitory activity (IC50 class)
[6] = tankyrase 2, ELISA, read-out: TNKS2 inhibitory activity (IC50 class)
[7] = class symbols, read-out: COLO-320 DM (cell proliferation inhibitory activity, GI50 value)
[8] = ELISA, class symbols, read-out: TNKS1 (inhibitory activity against tankyrase 1, IC50 value)
[9] = ELISA, class symbols, read-out: TNKS2 (inhibitory activity against tankyrase 2, IC50 value)

T2 sequence (Q9H2K2 613-1166): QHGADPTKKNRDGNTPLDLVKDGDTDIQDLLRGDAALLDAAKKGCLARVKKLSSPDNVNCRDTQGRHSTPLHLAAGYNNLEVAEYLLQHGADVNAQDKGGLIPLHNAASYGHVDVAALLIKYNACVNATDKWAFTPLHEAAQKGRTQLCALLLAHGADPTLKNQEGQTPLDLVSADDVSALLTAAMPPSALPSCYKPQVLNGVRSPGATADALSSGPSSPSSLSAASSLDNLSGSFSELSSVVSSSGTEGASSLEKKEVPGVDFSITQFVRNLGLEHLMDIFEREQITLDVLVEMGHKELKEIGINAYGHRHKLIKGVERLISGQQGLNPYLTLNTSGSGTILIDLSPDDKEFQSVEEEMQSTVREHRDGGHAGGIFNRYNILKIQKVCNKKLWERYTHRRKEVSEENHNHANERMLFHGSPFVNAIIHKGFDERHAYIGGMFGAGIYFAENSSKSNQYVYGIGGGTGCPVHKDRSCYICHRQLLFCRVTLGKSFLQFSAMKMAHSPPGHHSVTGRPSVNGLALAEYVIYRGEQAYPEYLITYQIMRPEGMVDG
T1 sequence (O95271 1024-1327): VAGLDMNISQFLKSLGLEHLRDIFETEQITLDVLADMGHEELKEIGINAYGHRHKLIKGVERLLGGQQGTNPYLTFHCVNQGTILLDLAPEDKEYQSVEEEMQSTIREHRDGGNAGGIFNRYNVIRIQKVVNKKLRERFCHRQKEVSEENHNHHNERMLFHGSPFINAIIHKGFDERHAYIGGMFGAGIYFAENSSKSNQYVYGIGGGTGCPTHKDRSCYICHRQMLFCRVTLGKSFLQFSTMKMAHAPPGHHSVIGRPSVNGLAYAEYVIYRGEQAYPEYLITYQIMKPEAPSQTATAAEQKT

**Q.** For O=c1[nH]c(N2CCC3(CC2)CN(Cc2cccnc2)c2ccccc23)nc2c1CCCC2 [Example 101, 2-[1-(pyridin-3-ylmethyl)spiro[indoline-3,4′-piperidin]-1′-yl]-5,6,7,8-tetrahydroquinazolin-4(3H)-one], which GI50 [1, 4] is on record?
**A.** 600 to 1000 nM

**Q.** What about the IC50 [2, 5] of the same compound?
**A.** 20 to 200 nM

**Q.** And the IC50 [3, 6]?
**A.** 20 to 200 nM

**Q.** CN1CCCc2c1nc(N1CCC3(CC1)OC(=O)c1cc(N4CCN(CCO)CC4)cc(F)c13)[nH]c2=O [Example 440, 4-fluoro-6-[4-(2-hydroxyethyl)piper-azin-1-yl]-1′-(4-hydroxy-8-methyl-6,7-dihydro-5H-pyrido[2,3-d]pyrimi-din-2-yl)spiro[2-benzofuran-3,4′-piperidine]-1-one] was tested. Which GI50 [1, 7] did it give?
**A.** 100 to 600 nM

**Q.** What about the IC50 [2, 8] of the same compound?
**A.** < 20 nM

**Q.** And the IC50 [3, 9]?
**A.** < 20 nM

**Q.** What does the source list for CN1CCCc2c1nc(N1CCC3(CC1)C(=O)N(C)c1cc(OCCN4CCOCC4)cc(Cl)c13)[nH]c2=O [Example 377, 4-chloro-1-methyl-1′-(8-methyl-4-oxo-3,4,5,6,7,8-hexahydropy-rido[2,3-d]pyrimidin-2-yl)-6-(2-morpholino-ethoxy) spiro[indoline-3,4′-piperidin]-2-one]?
**A.** GI50 [1, 4]: 100 to 600 nM; IC50 [2, 5]: < 20 nM; IC50 [3, 6]: < 20 nM

**Q.** What does the source list for CN1CCCc2c1nc(N1CCC3(CC1)C(=O)N(CCO)c1cc(OCC#N)cc(F)c13)[nH]c2=O [Example 429, {[4-fluoro-1-(2-hydroxy-ethyl)-1′-(8-methyl-4-oxo-3,4,5,6,7,8-hexahydro-pyrido[2,3-d]pyrimidin-2-yl)-2-oxospiro[indoline-3,4′-piperidin]-6-yl]oxy} acetonitrile]?
**A.** GI50 [1, 7]: 100 to 600 nM; IC50 [2, 8]: < 20 nM; IC50 [3, 9]: < 20 nM

**Q.** What does the source list for CN1CCCc2c1nc(N1CCC3(CC1)C(=O)N(C)c1cc(OCCN4CCCC4CO)cc(F)c13)[nH]c2=O (stereo not drawn) [Example 394, 4-fluoro-6-{2-[2-(hy-droxymethyl)pyrrolidin-1-yl]ethoxy}-1-methyl-1′-(8-methyl-4-oxo-3,4,5,6,7,8-hexahydropyrido [2,3-d]pyrimidin-2-yl)spiro [indoline-3,4′-piperidin]-2(1H)-one]?
**A.** GI50 [1, 7]: 600 to 1000 nM; IC50 [2, 8]: < 20 nM; IC50 [3, 9]: < 20 nM

**Q.** O=c1[nH]c(N2CCC3(CC2)CN(Cc2cccnc2)c2cc(Cl)ccc23)nc2c1CCCC2 [Example 218, 2-(6-chloro-1-(pyridin-3-ylmethyl)spiro [indoline-3,4′-piperidin]-1′-yl)-5,6,7,8-tetrahydro-quinazolin-4(3H)-one] was tested. Which GI50 [1, 4] did it give?
**A.** 600 to 1000 nM

**Q.** And the IC50 [2, 5]?
**A.** 20 to 200 nM

**Q.** And the IC50 [3, 6]?
**A.** < 20 nM

**Q.** For CN1CCCc2c1nc(N1CCC3(CC1)C(=O)N(C)c1cc(O)cc(F)c13)[nH]c2=O [Example 354, 4-fluoro-6-hydroxy-1-methyl-1′-(8-methyl-4-oxo-3,4,5,6,7,8-hexahydropyrido [2,3-d]pyrimidin-2-yl) spiro[indoline-3,4′-piperidin]-2-one], which GI50 [1, 4] is on record?
**A.** 100 to 600 nM

**Q.** And the IC50 [2, 5]?
**A.** < 20 nM

**Q.** What about the IC50 [3, 6] of the same compound?
**A.** < 20 nM

**Q.** For COCCOc1cc(F)c2c(c1)N(CCO)C(=O)C21CCN(c2nc3c(c(=O)[nH]2)CCCN3C)CC1 [Example 383, 4-fluoro-1-(2-hydroxy-ethyl)-6-(2-methoxyethoxy-1′-(8-methyl-4-oxo-3,4,5,6,7,8-hexahydropyrido [2,3-d]pyrimidin-2-yl))spiro [indoline-3,4′-piperidin]-2-one], which GI50 [1, 4] is on record?
**A.** 100 to 600 nM

**Q.** What about the IC50 [2, 5] of the same compound?
**A.** < 20 nM

**Q.** And the IC50 [3, 6]?
**A.** < 20 nM

**Q.** For COc1ccc2c(c1)C1(CCN(c3nc4c(c(=O)[nH]3)CCCC4)CC1)CN2C [Example 147, 2-(5-methoxy-1-meth-ylspiro[indoline-3,4′-piperidin]-1′-yl)-5,6,7,8-tetrahydroquinazolin-4(3H)-one], which GI50 [1, 4] is on record?
**A.** 600 to 1000 nM

**Q.** And the IC50 [2, 5]?
**A.** 20 to 200 nM

**Q.** And the IC50 [3, 6]?
**A.** < 20 nM

**Q.** What does the source list for CN1CCCc2c1nc(N1CCC3(CC1)C(=O)N(C)c1cc(C(=O)O)cc(F)c13)[nH]c2=O [Example 431, 4-fluoro-1-methyl-1′-(8-methyl-4-oxo-3,4,5,6,7,8-hexahydro-pyrido[2,3-d]primi-din-2-yl)-2-oxospiro[indoline-3,4′-piperidine]-6-carboxylic acid]?
**A.** GI50 [1, 7]: 600 to 1000 nM; IC50 [2, 8]: < 20 nM; IC50 [3, 9]: < 20 nM

**Q.** With Cc1cccc2c(=O)[nH]c(N3CCC4(CC3)CN(CCO)c3cc(F)cc(F)c34)nc12 [Example 258, 2-[4,6-di-fluoro-1-(2-hydroxy-ethyl)spiro-[indoline-3,4′-piperidin]-1′-yl]-8-methyl-quinazolin-4(3H)-one] as the compound, how does the GI50 [1, 4] read?
**A.** 600 to 1000 nM

**Q.** What about the IC50 [2, 5] of the same compound?
**A.** < 20 nM

**Q.** What about the IC50 [3, 6] of the same compound?
**A.** < 20 nM

**Q.** CN1C(=O)C2(CCN(c3nc4c(c(=O)[nH]3)CCCN4)CC2)c2c(F)ccc(OCCO)c21 [Example 414, 4-fluoro-7-(2-hydroxy-ethoxy)-1′-(4-hydroxy-5,6,7,8-tetrahdyro-pyrido[2,3-d]pyrimidin-2-yl)-1-methyl-spiro [indole-3,4′-piperidin]-2-one] was tested. Which GI50 [1, 7] did it give?
**A.** 600 to 1000 nM

**Q.** What about the IC50 [2, 8] of the same compound?
**A.** < 20 nM

**Q.** And the IC50 [3, 9]?
**A.** < 20 nM

**Q.** How did the GI50 [1, 7] turn out when COCCN1C(=O)C2(CCN(c3nc4c(c(=O)[nH]3)CCCN4C)CC2)c2c(F)cc(OCCN(C)C)cc21 [Example 405] was run?
**A.** 600 to 1000 nM

**Q.** And the IC50 [2, 8]?
**A.** < 20 nM

**Q.** And the IC50 [3, 9]?
**A.** < 20 nM

**Q.** CN1CCCc2c1nc(N1CCC3(CC1)C(=O)N(CC(F)(F)F)c1cc(OCC(=O)O)cc(F)c13)[nH]c2=O [Example 408] was tested. Which GI50 [1, 7] did it give?
**A.** < 100 nM

**Q.** Which results are given for CN1CCCc2c1nc(N1CCC3(CC1)C(=O)N(C)c1cc(N4CCN(C5COC5)CC4)cc(F)c13)[nH]c2=O [Example 398, 4-fluoro-1-methyl-1′-(8-methyl-4-oxo-3,4,5,6,7,8-hexahydro-pyrido [2,3-d]pyrimidin-2-yl)-6-(4-(oxetan-3-yl)piperazin-1-yl)spiro [indoline-3,4′-piperidin]-2(1H)-one]?
**A.** GI50 [1, 7]: 100 to 600 nM; IC50 [2, 8]: < 20 nM; IC50 [3, 9]: < 20 nM

**Q.** How did the GI50 [1, 7] turn out when CN1CCCc2c1nc(N1CCC3(CC1)C(=O)N(C)c1cc(OCC(=O)O)cc(F)c13)[nH]c2=O [Example 392] was run?
**A.** 100 to 600 nM

**Q.** What about the IC50 [2, 8] of the same compound?
**A.** < 20 nM

**Q.** What about the IC50 [3, 9] of the same compound?
**A.** < 20 nM

**Q.** With CN1CCCc2c1nc(N1CCC3(CC1)C(=O)N(C)c1cc(C4CCC(O)CC4)cc(F)c13)[nH]c2=O (stereo not drawn) [Example 468, 4-fluoro-6-(4-hydroxycyclohexyl)-1-methyl-1′-(8-methyl-4-oxo-3,4,5,6,7,8-hexahydropyrido[2,3-d]pyrimidin-2-yl)spiro[indole-3,4′-piperidine]-2(1H)-one] as the compound, how does the GI50 [1, 7] read?
**A.** < 100 nM

**Q.** CN1CCCc2c1nc(N1CCC3(CC1)C(=O)N(C)c1c(OC4CCOC4)ccc(Cl)c13)[nH]c2=O (stereo not drawn) [Example 433, 4-chloro-1′-(4-hydroxy-8-methyl-6,7-dihydro-5H-pyrido[2,3-d]pyrimidin-2-yl)-1-methyl-7-(oxolan-3-yloxy) spiro[indole-3,4′-piperidin]-2-one] was tested. Which GI50 [1, 7] did it give?
**A.** < 100 nM
